pIC50: −log10 of the molar value. Counter-ions that a name gives are not always drawn.

For 24 compounds, IC50 results are on record in patent US9353096B2, “Substituted phenylcarbamate compounds” (Hoffmann-La Roche Inc., priority 2012, dated 2016).

Sequence of hTRPA1 (O75762 whole entry): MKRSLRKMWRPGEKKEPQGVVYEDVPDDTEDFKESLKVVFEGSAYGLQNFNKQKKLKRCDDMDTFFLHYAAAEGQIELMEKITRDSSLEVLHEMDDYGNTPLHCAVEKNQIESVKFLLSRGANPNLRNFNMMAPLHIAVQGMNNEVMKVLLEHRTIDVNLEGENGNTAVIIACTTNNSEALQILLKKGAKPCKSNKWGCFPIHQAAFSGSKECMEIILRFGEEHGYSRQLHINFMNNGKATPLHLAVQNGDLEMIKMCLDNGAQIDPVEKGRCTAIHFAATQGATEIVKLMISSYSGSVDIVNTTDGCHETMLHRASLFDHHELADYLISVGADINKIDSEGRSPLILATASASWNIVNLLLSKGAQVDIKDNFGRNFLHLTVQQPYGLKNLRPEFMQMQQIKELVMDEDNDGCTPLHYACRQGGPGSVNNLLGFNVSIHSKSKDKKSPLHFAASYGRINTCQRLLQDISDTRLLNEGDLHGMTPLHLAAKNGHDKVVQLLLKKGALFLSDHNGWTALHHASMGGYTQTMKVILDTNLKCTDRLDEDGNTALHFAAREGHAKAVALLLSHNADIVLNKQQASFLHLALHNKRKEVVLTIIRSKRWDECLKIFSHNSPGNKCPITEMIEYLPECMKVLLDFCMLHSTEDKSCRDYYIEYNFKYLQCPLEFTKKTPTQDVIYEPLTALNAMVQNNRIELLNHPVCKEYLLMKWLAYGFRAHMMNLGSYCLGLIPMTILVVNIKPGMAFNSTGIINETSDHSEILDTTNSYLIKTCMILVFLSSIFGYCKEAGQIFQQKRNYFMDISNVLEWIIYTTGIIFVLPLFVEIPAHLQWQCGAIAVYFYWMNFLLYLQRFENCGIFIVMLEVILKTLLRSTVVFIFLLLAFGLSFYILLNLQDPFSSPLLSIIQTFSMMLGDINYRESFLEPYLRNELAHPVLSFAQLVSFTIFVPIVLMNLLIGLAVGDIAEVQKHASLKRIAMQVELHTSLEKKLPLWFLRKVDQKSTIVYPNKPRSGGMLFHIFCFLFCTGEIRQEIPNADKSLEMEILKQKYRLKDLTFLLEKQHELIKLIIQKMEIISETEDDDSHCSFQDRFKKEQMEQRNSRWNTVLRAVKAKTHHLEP

This experiment deals with hTRPA1 (Homo sapiens, UniProt O75762). Nature of the experiment: Dose response calcium flux (FLIPR) assay, ChanTest hTRPA1-CHO stably transfected cell line, cinnamaldehyde agonist. To be noted: CHO-K1 Tet-On hTRPA1 cells, 100 uM cinnamaldehyde agonist, 30 min preincubation. In kind it is cell-based. As for the experimental part:
Dose Response Assay:ChanTest hTRPA1-CHO Stably Transfected Cell Line
CHO-K1 Tet-On_HOMSA_TRPA1_Clone_20
Growth Media for CHO-K1 Tet-On_HOMSA_TRPA1_Clone_20 • Ham's F-12 with 10% tetracycline-free FBS • 1× penicillin-streptomycin • 1× glutamax • 0.01 mg/ml Blasticidin • 0.40 mg/ml Zeocin • The cell line doubling rate was ˜15 h. […] Experiments were run at 24 h post induction.
Plating Conditions CHOK1/TRPA1 Cells: • Harvested cells with 0.025% trypsin/EDTA. • Resuspended cells in growth media without selection antibiotics. • Measured cell density and diluted to 2.4×10^5 cells/ml in media containing 1 ug/ml Doxycycline Plate 25 ul/well into 384 well black/clear tissue culture-treated plates. • Incubated overnight at 37° C.
Replacement Buffer: Hank's Balanced Salt Solution, 20 mM HEPES along with 0.005% BSA and 2× Probenecid
Dye Loading Buffer: Cal-3 NW Calcium dye was prepared by dissolving the contents of one vial with […] Hank's Balanced Salt Solution containing 20 mM HEPES.
AP-18, stock 10 mM, prepare 3.5× compound dilution in a Compound Buffer (HBSS/20 mM HEPES/0.005% BSA)—final concentration 10 uM.
Preparation of Cinnamaldehyde (Agonist Addition): • FW=132.16 • Specific gravity=1.046 gm/cc • 1.32 gm/1.046 gm/cc=1.26 ml of stock • Add 1.74 ml DMSO=3.3 M stock • Working solution 4.5× (final 100 uM in Compound Buffer: HBSS/20 mM HEPES/0.005% BSA)
Compounds dilutions were prepared from 5 or 10 mM stock (100% DMSO): • Adjustments of volumes and concentrations were made at time of titration to reflect desired final assay concentrations. • Compounds were tested at either 20 μM three folds dilution 11 steps out or 30 μM two folds dilution 11 steps out. • 3 μl of diluted compound were transferred into Weidmann 384-well plate in duplicates side-by-side. • Compound plates were resuspended with 100 ul of HBSS/20 mM HEPES/0.005% BSA buffer (Compound Buffer): • column 1A-H: buffer/DMSO (bk) • column 2A-H: AP-18 (control antagonist for CHOK1 TRPA1 cells) • column 1I-P: ATP (control for CHOK1 teton cells) • column 2I-P: 2APB (control antagonist for CHOK1/TRPM8 cells).
Growth media was removed from the cell plates (20 ul) and 20 μl of the Replacement Buffer was added followed by addition of 25 μl of diluted dye. All three steps were performed using a Plate Washer BioTek 407. The plates were then incubated for 30′ at RT.
After incubation, both the cell and compound plates were brought to the FLIPR and 20 μl of the diluted compounds/antagonist/bk were transferred to the cell plates by the FLIPR. Plates were then incubated for 30′ at room temperature. After 30′ incubation, plates were returned to the FLIPR and 20 μl of 4.5× Cinnamaldehyde was added to the cell plates. During the compound addition as well as agonist addition, fluorescence readings were taken simultaneously from all 384 wells of the cell plate every 1.5 seconds. Five readings were taken to establish a stable baseline, then 20 μl of sample was rapidly (30 ul/sec) and simultaneously added to each well of the cell plate. The fluorescence was continuously monitored before, during and after sample/agonist addition for a total elapsed time of 100 seconds (compound addition) and 120 seconds (agonist addition). Responses (increase in peak fluorescence) in each well following agonist addition was determined. The initial fluorescence reading from each well, prior to ligand stimulation, was used a zero baseline value for the data from that well.
On the technique in general: Calcium assays in cells follow changes in intracellular calcium, usually with a dye or a luminescent sensor.
As a reminder, the pIC50 is −log10 of the IC50, conventionally taken in molar units. As for `O=C(Nc1ccc(Cl)cc1)O[C@@H](CN1CCO[C@@H](Cc2ccccc2)C1)C(F)(F)F` (single isomer, unassigned) [Example 10, hydrochloride], the negative-log IC50 (pIC50) is 5.45. Under `COc1cccc([C@H]2CN(C[C@H](OC(=O)Nc3ccc(Cl)cc3)C(F)(F)F)CCO2)c1` (single isomer, unassigned) [Example 15] stands 6.10. `O=C(Nc1ccc(Cl)cc1)O[C@@H](CN1CCS(=O)(=O)[C@@H](c2cccc(C(F)(F)F)c2)C1)C(F)(F)F` (single isomer, unassigned) [Example 19]: the pIC50 is 6.72. The value for `O=C(Nc1ccc(Cl)c(F)c1)O[C@@H](CN1CCS(=O)(=O)[C@@H](c2cccc(C(F)(F)F)c2)C1)C(F)(F)F` (single isomer, unassigned) [Example 21] was 5.96; that for `O=C(Nc1ccc(Cl)c(F)c1)O[C@@H](CN1CCO[C@@H](c2ccc(C(F)(F)F)nc2)C1)C(F)(F)F` (single isomer, unassigned) [Example 23, hydrochloride] was 6.11. The value for `CC(C)c1nccc([C@H]2CN(C[C@H](OC(=O)Nc3ccc(Cl)c(F)c3)C(F)(F)F)CCO2)n1` (single isomer, unassigned) [Example 26, hydrochloride] was 6.07; that for `O=C(Nc1ccc(Cl)cc1)O[C@@H](CN1CCO[C@@H](c2ccc(C(F)(F)F)cc2)C1)C(F)(F)F` (single isomer, unassigned) [Example 30, hydrochloride] was 6.70. Under `O=C(Nc1ccc(Cl)c(F)c1)O[C@@H](CN1CCO[C@@H](c2ccc(F)c(F)c2)C1)C(F)(F)F` (single isomer, unassigned) [Example 35, hydrochloride] stands 6.71; under `O=C(Nc1ccc(Cl)cc1)O[C@@H](CN1CCO[C@H](c2ccc(F)c(C(F)(F)F)c2)C1)C(F)(F)F` [Example 1, (4-Chlorophenyl)-carbamic acid (S)-2,2,2-trifluoro-1-[(R)-2-(4-fluoro-3-trifluoromethylphenyl)-morpholin-4-ylmethyl]-ethyl ester hydrochloride], 8.31. For the compound `O=C(Nc1ccc(Cl)cc1)O[C@@H](CN1CCOC(c2ccc(F)c(C(F)(F)F)c2)C1)C(F)(F)F` (stereo partly drawn) [Example 2, (4-Chlorophenyl)-carbamic acid (S)-2,2,2-trifluoro-1-[2-(4-fluoro-3-trifluoromethylphenyl)-morpholin-4-ylmethyl]-ethyl ester hydrochloride], the negative logarithm of the IC50 (pIC50) was 8.07.

Consider `O=C(Nc1ccc(Cl)c(F)c1)O[C@@H](CN1CCO[C@H](c2ccc(F)c(C(F)(F)F)c2)C1)C(F)(F)F` [Example 3, (4-Chloro-3-fluorophenyl)-carbamic acid (S)-2,2,2-trifluoro-1-[(R)-2-(4-fluoro-3-trifluoromethylphenyl)-morpholin-4-ylmethyl]-ethyl ester hydrochloride], for which the negative logarithm of the IC50 (pIC50) is 7.84.

In the case of `O=C(Nc1ccc(Cl)c(F)c1)O[C@@H](CN1CCO[C@H](c2ccc(Cl)c(F)c2)C1)C(F)(F)F` [Example 4, (4-Chloro-3-fluorophenyl)-carbamic acid (S)-1-[(R)-2-(4-chloro-3-fluorophenyl)-morpholin-4-ylmethyl]-2,2,2-trifluoroethyl ester hydrochloride], the pIC50 is 7.37.

Regarding `O=C(Nc1ccc(Cl)c(F)c1)O[C@@H](CN1CCO[C@H](c2ccc(F)c(Cl)c2)C1)C(F)(F)F` [Example 5, (4-Chloro-3-fluorophenyl)-carbamic acid (S)-1-[(R)-2-(3-chloro-4-fluorophenyl)-morpholin-4-ylmethyl]-2,2,2-trifluoroethyl ester hydrochloride], the pIC50 was 7.51. Under `O=C(Nc1ccc(Cl)c(F)c1)O[C@@H](CN1CCO[C@H](c2cccc(Cl)c2)C1)C(F)(F)F` [Example 6, (4-Chloro-3-fluorophenyl)-carbamic acid (S)-1-[(R)-2-(3-chlorophenyl)-morpholin-4-ylmethyl]-2,2,2-trifluoroethyl ester hydrochloride] stands 7.30.

In the case of `O=C(Nc1ccc(Cl)c(F)c1)O[C@@H](CN1CCO[C@H](c2cccc(Cl)c2)C1)C(F)(F)F` [Example 7, (4-Chloro-3-fluorophenyl)-carbamic acid (S)-1-[(R)-2-(3-chlorophenyl)-morpholin-4-ylmethyl]-2,2,2-trifluoroethyl ester hydrochloride], the negative logarithm of the IC50 (pIC50) is 7.33. The value for `O=C(Nc1ccc(Cl)c(F)c1)O[C@@H](CN1CCO[C@@H](c2cccc(Cl)c2)C1)C(F)(F)F` [Example 8, (4-Chloro-3-fluorophenyl)-carbamic acid (S)-1-[(S)-2-(3-chlorophenyl)-morpholin-4-ylmethyl]-2,2,2-trifluoroethyl ester hydrochloride] was 6.22; that for `O=C(Nc1ccc(Cl)cc1)O[C@@H](CN1CCO[C@H](Cc2ccccc2)C1)C(F)(F)F` [Example 9, (4-Chlorophenyl)-carbamic acid (S)-1-((R)-2-benzyl-morpholin-4-ylmethyl)-2,2,2-trifluoroethyl ester hydrochloride] was 6.92; that for `O=C(Nc1ccc(Cl)cc1)O[C@@H](CN1CCO[C@H](c2cccc(C(F)(F)F)c2)C1)C(F)(F)F` [Example 11, (4-Chlorophenyl)-carbamic acid (S)-2,2,2-trifluoro-1-[(R)-2-(3-trifluoromethylphenyl)-morpholin-4-ylmethyl]-ethyl ester hydrochloride] was 8.25. Under `O=C(Nc1ccc(Cl)cc1)O[C@@H](CN1CCO[C@@H](c2cccc(C(F)(F)F)c2)C1)C(F)(F)F` [Example 12, (4-Chlorophenyl)-carbamic acid (S)-2,2,2-trifluoro-1-[(S)-2-(3-trifluoromethylphenyl)-morpholin-4-ylmethyl]-ethyl ester hydrochloride] stands 6.97. The value for `O=C(Nc1ccc(Cl)c(F)c1)O[C@@H](CN1CCO[C@H](c2cccc(C(F)(F)F)c2)C1)C(F)(F)F` [Example 13, (4-Chloro-3-fluorophenyl)-carbamic acid (S)-2,2,2-trifluoro-1-[(R)-2-(3-trifluoromethylphenyl)-morpholin-4-ylmethyl]-ethyl ester hydrochloride] was 8.20; that for `COc1cccc([C@@H]2CN(C[C@H](OC(=O)Nc3ccc(Cl)cc3)C(F)(F)F)CCO2)c1` [Example 14, (4-Chlorophenyl)-carbamic acid (S)-2,2,2-trifluoro-1-[(R)-2-(3-methoxyphenyl)-morpholin-4-ylmethyl]-ethyl ester] was 7.44. On to `COc1cccc([C@@H]2CN(C[C@H](OC(=O)Nc3ccc(Cl)cc3)C(F)(F)F)CCS2(=O)=O)c1` [Example 16, (4-Chlorophenyl)-carbamic acid (S)-2,2,2-trifluoro-1-[(R)-2-(3-methoxyphenyl)-1,1-dioxo-1λ^6-thiomorpholin-4-ylmethyl]ethyl ester], for which the pIC50 is 6.82.

With `COc1cccc(C2CN(C[C@H](OC(=O)Nc3ccc(Cl)cc3)C(F)(F)F)CCS2(=O)=O)c1` (stereo partly drawn) [Example 17, (4-Chlorophenyl)-carbamic acid (S)-2,2,2-trifluoro-1-[2-(3-methoxyphenyl)-1,1-dioxo-1λ^6-thiomorpholin-4-ylmethyl]-ethyl ester], the negative-log IC50 (pIC50) is 6.41. The value for `O=C(Nc1ccc(Cl)cc1)O[C@@H](CN1CCS(=O)(=O)[C@H](c2cccc(C(F)(F)F)c2)C1)C(F)(F)F` [Example 18, (4-Chlorophenyl)-carbamic acid (S)-1-[(R)-1,1-dioxo-2-(3-trifluoromethylphenyl)-1λ^6-thiomorpholin-4-ylmethyl]-2,2,2-trifluoroethyl ester] was 7.37.
